Experimental data: PMC10301922, “Anti-Oxidant, Anti-Mutagenic Activity and Safety Evaluation of Antrocin” (Toxics, 2023)

Columns and labels:
[1] = test system: Salmonella typhimurium TA102; assay: Ames test (plate incorporation), TA102
Sprague Dawley rats = assay: 28-day oral toxicity test: serum biochemistry
[2] = test system: Salmonella typhimurium TA1537; assay: Ames test (plate incorporation), TA1537
[3] = female rats, 7.5 mg/kg oral 28 d
[4] = female rats, 37.5 mg/kg oral 28 d
[5] = male rats, 37.5 mg/kg oral 28 d

## C=C1CC[C@H]2C(C)(C)CCC[C@@]23C(=O)OC[C@@H]13 [Antrocin, (-)-Antrocin]
[1]; TA102, with S9, 0.003125 mg/plate
  Number of Revertant: 352.0 ± 8.5 Colony/Plate
[1]; TA102, with S9, 0.00625 mg/plate
  Number of Revertant: 326.7 ± 5.9 Colony/Plate
[1]; TA102, with S9, 0.025 mg/plate
  Number of Revertant: 327.3 ± 7.7 Colony/Plate
[1]; TA102, with S9, 0.05 mg/plate
  Number of Revertant: 322.0 ± 6.2 Colony/Plate
[1]; TA102, without S9, 0.003125 mg/plate
  Number of Revertant: 245.7 ± 10.4 Colony/Plate
[1]; TA102, without S9, 0.00625 mg/plate
  Number of Revertant: 246.0 ± 16.4 Colony/Plate
[1]; TA102, without S9, 0.025 mg/plate
  Number of Revertant: 278.3 ± 4.5 Colony/Plate
[1]; TA102, without S9, 0.05 mg/plate
  Number of Revertant: 270.0 ± 11.2 Colony/Plate
Sprague Dawley rats; [3]
  A/G: 1.9 ± 0.2
  ALP: 147.4 ± 27.6 U/L
  ALT: 24.2 ± 1.9 U/L
  AST: 58.0 ± 8.5 U/L
  Albumin: 3.7 ± 0.2 g/dL
  Amylase: 1280.6 ± 111.3 U/L
  BUN: 12.0 ± 1.0 mg/dL
  CK: 100.2 ± 30.8 U/L
  Ca^2+: 9.9 ± 0.1 mg/dL
  Cholesterol: 51.2 ± 9.8 mg/dL
  Creatinine: 0.4 ± 0.0 mg/dL
  GGT: 1–2 U/L
  Globulin: 1.9 ± 0.1 g/dL
  Glucose: 182.4 ± 42.9 mg/dL
  HDL-C: 16.0 ± 3.4 mg/dL
  K^+: 5.2 ± 0.2
  LDH: 92.4 ± 73.8 U/L
  Mg^2+: 2.1 ± 0.1
  Na^+: 139.2 ± 1.6
  Phosphate: 8.5 ± 1.0 mg/dL
  TB: <0.1 mg/dL
  TG: 32.8 ± 5.2 mg/dL
  TP: 5.6 ± 0.2
  UA: 0.9 ± 0.1 mg/dL
Sprague Dawley rats; [4]
  A/G: 1.7 ± 0.1
  ALP: 116.4 ± 35.7 U/L
  ALT: 32.6 ± 6.2 U/L
  AST: 72.6 ± 7.4 U/L
  Albumin: 3.8 ± 0.2 g/dL
  Amylase: 1240.4 ± 239.9 U/L
  BUN: 11.0 ± 0.7 mg/dL
  CK: 129.8 ± 59.5 U/L
  Ca^2+: 10.2 ± 0.2 mg/dL
  Cholesterol: 47.0 ± 11.8 mg/dL
  Cl^−: 104.2 ± 1.3
  Creatinine: 0.3 ± 0.1 mg/dL
  GGT: 1–2 U/L
  Globulin: 2.2 ± 0.1 g/dL
  Glucose: 138.2 ± 21.7 mg/dL
  HDL-C: 14.6 ± 3.8 mg/dL
  K^+: 5.0 ± 0.7
  LDH: 125.4 ± 96.2 U/L
  Mg^2+: 2.4 ± 0.3
  Na^+: 142.6 ± 1.1
  Phosphate: 8.5 ± 0.5 mg/dL
  TB: <0.1 mg/dL
  TG: 27.2 ± 8.1 mg/dL
  TP: 6.0 ± 0.3
  UA: 1.3 ± 0.6 mg/dL
Sprague Dawley rats; male rats, 7.5 mg/kg oral 28 d
  A/G: 1.8 ± 0.1
  ALP: 238.4 ± 43.9 U/L
  ALT: 28.2 ± 3.1 U/L
  AST: 61.4 ± 4.3 U/L
  Albumin: 3.4 ± 0.1 g/dL
  Amylase: 1931.0 ± 241.1 U/L
  BUN: 11.2 ± 1.3 mg/dL
  CK: 185.6 ± 96.1 U/L
  Ca^2+: 9.7 ± 0.2 mg/dL
  Cholesterol: 41.2 ± 6.3 mg/dL
  Creatinine: 0.3 ± 0.0 mg/dL
  GGT: <1 U/L
  Globulin: 1.9 ± 0.1 g/dL
  Glucose: 178.0 ± 25.7 mg/dL
  HDL-C: 12.8 ± 1.5 mg/dL
  K^+: 6.5 ± 0.3
  LDH: 219.6 ± 139.5 U/L
  Mg^2+: 2.0 ± 0.1
  Na^+: 141.8 ± 0.8
  Phosphate: 9.1 ± 0.9 mg/dL
  TB: <0.1 mg/dL
  TG: 33.0 ± 8.1 mg/dL
  TP: 5.3 ± 0.2
  UA: 1.5 ± 0.1 mg/dL
Sprague Dawley rats; [5]
  A/G: 1.8 ± 0.1
  ALP: 256.8 ± 44.0 U/L
  ALT: 27.6 ± 2.1 U/L
  AST: 60.2 ± 3.3 U/L
  Albumin: 3.5 ± 0.2 g/dL
  Amylase: 2016.4 ± 289.7 U/L
  BUN: 11.6 ± 1.8 mg/dL
  CK: 156.4 ± 31.1 U/L
  Ca^2+: 9.9 ± 0.4 mg/dL
  Cholesterol: 44.0 ± 2.5 mg/dL
  Cl^−: 104.6 ± 2.1
  Creatinine: 0.3 ± 0.0 mg/dL
  GGT: <1 U/L
  Globulin: 2.0 ± 0.2 g/dL
  Glucose: 178.0 ± 14.5 mg/dL
  HDL-C: 15.2 ± 2.8 mg/dL
  K^+: 6.4 ± 0.6
  LDH: 109.8 ± 33.5 U/L
  Mg^2+: 2.1 ± 0.2
  Na^+: 141.4 ± 2.3
  Phosphate: 9.6 ± 1.6 mg/dL
  TB: <0.1 mg/dL
  TG: 46.2 ± 8.3 mg/dL
  TP: 5.5 ± 0.4
  UA: 1.6 ± 0.3 mg/dL
[2]; TA1537, with S9, 0.003125 mg/plate
  Number of Revertant: 11.7 ± 1.9 Colony/Plate
[2]; TA1537, with S9, 0.00625 mg/plate
  Number of Revertant: 6.7 ± 2.4 Colony/Plate
[2]; TA1537, with S9, 0.025 mg/plate
  Number of Revertant: 10.3 ± 2.1 Colony/Plate
[2]; TA1537, with S9, 0.05 mg/plate
  Number of Revertant: 6.0 ± 1.4 Colony/Plate
[2]; TA1537, without S9, 0.003125 mg/plate
  Number of Revertant: 14.3 ± 2.6 Colony/Plate
[2]; TA1537, without S9, 0.00625 mg/plate
  Number of Revertant: 8.7 ± 0.5 Colony/Plate
[2]; TA1537, without S9, 0.025 mg/plate
  Number of Revertant: 13.0 ± 2.2 Colony/Plate
[2]; TA1537, without S9, 0.05 mg/plate
  Number of Revertant: 9.7 ± 0.9 Colony/Plate
